Test results reported in patent US9115126B2, “1H-[1,2,3]triazolo[4,5-c]pyridine-4-carbonitrile derivatives” (Merck Sharp & Dohme B.V., priority 2010, dated 2015).
Structures can show the parent of a compound that is named as a salt. Where two headings read alike, the source gives them in different places.

Target: recombinant human Cathepsin S (Homo sapiens (Human), UniProt P25774)
Test: Cathepsin S assay procedure (fluorogenic substrate Z-Val-Val-Arg-AMC)
Format: biochemical
Procedure: 25 μl of a 2 mg/l solution of activated recombinant human cathepsin S, in assay buffer, is then added to the well, yielding a final inhibitor concentration of 10 μM.
Enzyme activity is determined by measuring the fluorescence of the liberated aminomethylcoumarin at […] using 390 nm excitation, at 20 minutes. Percentage enzyme activity is calculated by comparison of this activity to that of a solution containing no inhibitor.

[1] = read-out: pIC50 (negative logarithm of the IC50 concentration) for inhibition of human cathepsin S (converted)
[2] = pH5.5, fluorescence at 20 minutes, read-out: Cat S activity IC50

Chain of recombinant human Cathepsin S (P25774 115-331): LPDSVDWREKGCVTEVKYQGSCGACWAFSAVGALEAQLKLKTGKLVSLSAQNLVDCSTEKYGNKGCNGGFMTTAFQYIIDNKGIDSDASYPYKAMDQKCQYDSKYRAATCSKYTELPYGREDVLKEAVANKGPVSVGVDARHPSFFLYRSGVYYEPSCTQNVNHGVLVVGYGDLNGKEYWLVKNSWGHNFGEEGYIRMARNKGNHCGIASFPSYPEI

| SMILES | IC50 [1] | IC50 [2] |
| --- | --- | --- |
| Cn1nnc2c(C#N)nc(-c3ccc(OCCC4CCN(CCS(C)(=O)=O)CC4)c(C(F)(F)F)c3)cc21 [Example 19, 1-methyl-6-(4-(2-(1-(2-(methylsulfonyl)ethyl)piperidin-4-yl)ethoxy)-3-(trifluoromethyl)phenyl)-1H-[1,2,3]triazolo[4,5-d]pyridine-4-carbonitrile] | < 10 nM |  |
| Cn1nnc2c(C#N)nc(-c3ccc(OCc4ccccn4)c(C(F)(F)F)c3)cc21 [Example 20, 1-methyl-6-(4-(pyridin-2-ylmethoxy)-3-(trifluoromethyl)phenyl)-1H-[1,2,3]triazolo[4,5-c]pyridine-4-carbonitrile] | < 10 nM |  |
| Cn1nnc2c(C#N)nc(-c3ccc(OCc4cccc[n+]4[O-])c(C(F)(F)F)c3)cc21 [Example 21, 1-methyl-6-(4-(1-N-oxy-pyridin-2-ylmethoxy)-3-(trifluoromethyl)phenyl)-1H-[1,2,3]triazolo[4,5-c]pyridine-4-carbonitrile] | < 10 nM |  |
| Cn1nnc2c(C#N)nc(-c3ccc(OCc4cccnc4)c(C(F)(F)F)c3)cc21 [Example 22, 1-methyl-6-(4-(pyridin-3-ylmethoxy)-3-(trifluoromethyl)phenyl)-1H-[1,2,3]triazolo[4,5-c]pyridine-4-carbonitrile] | < 10 nM |  |
| Cn1nnc2c(C#N)nc(-c3ccc(OCc4ccc[n+]([O-])c4)c(C(F)(F)F)c3)cc21 [Example 23, methyl-6-(4-(1-N-oxy-pyridin-3-ylmethoxy)-3-(trifluoromethyl)phenyl)-1H-[1,2,3]triazolo[4,5-c]pyridine-4-carbonitrile] | < 10 nM |  |
| Cn1nnc2c(C#N)nc(-c3ccc(OCc4ccncc4)c(C(F)(F)F)c3)cc21 [Example 24, 1-methyl-6-(4-(pyridin-4-ylmethoxy)-3-(trifluoromethyl)phenyl)-1H-[1,2,3]triazolo[4,5-c]pyridine-4-carbonitrile] | < 10 nM |  |
| Cn1nnc2c(C#N)nc(-c3ccc(OCc4cc[n+]([O-])cc4)c(C(F)(F)F)c3)cc21 [Example 25, methyl-6-(4-(1-N-oxy-pyridin-4-ylmethoxy)-3-(trifluoromethyl)phenyl)-1H-[1,2,3]triazolo[4,5-c]pyridine-4-carbonitrile] | < 10 nM |  |
| Cn1nnc2c(C#N)nc(-c3cnc(OCCC4CCNCC4)c(C(F)(F)F)c3)cc21 [Example 26, 1-Methyl-6-(6-(2-(piperidin-4-yl)ethoxy)-5-(trifluoromethyl)pyridin-3-yl)-1H-[1,2,3]-triazolo[4,5-c]pyridine-4-carbonitrile trifluoroacetate] | < 10 nM |  |
| CN(C)C(=O)CN1CCC(CCOc2ncc(-c3cc4c(nnn4C)c(C#N)n3)cc2C(F)(F)F)CC1 [Example 27a, 6-(6-(2-(1-(2-Dimethylamino-2-oxo-ethyl)piperidin-4-yl)ethoxy)-5-(trifluoromethyl)pyridin-3-yl)-1-methyl-1H-[1,2,3]triazolo[4,5-c]pyridine-4-carbonitrile hydrochloride] | < 10 nM |  |
| Cn1nnc2c(C#N)nc(-c3ccc(OCCC4CCN(C(=O)C5(N)CC5)CC4)c(C(F)(F)F)c3)cc21 [Example 29, 6-(4-(2-(1-(1-aminocyclopropanecarbonyl)piperidin-4-yl)ethoxy)-3-(trifluoromethyl)phenyl)-1-methyl-1H-[1,2,3]triazolo[4,5-d]pyridine-4-carbonitrile] | < 10 nM |  |
| Cn1nnc2c(C#N)nc(-c3ccc(OCCC4CNC4)c(C(F)(F)F)c3)cc21 [Example 30, 6-(4-(2-(azetidin-3-yl)ethoxy)-3-(trifluoromethyl)phenyl)-1-methyl-1H-[1,2,3]triazolo[4,5-d]pyridine-4-carbonitrile 2,2,2-trifluoroacetate] | < 10 nM |  |
| CN(C)C(=O)CN1CC(CCOc2ccc(-c3cc4c(nnn4C)c(C#N)n3)cc2C(F)(F)F)C1 [Example 31, 6-(4-(2-(1-(2-dimethylamino-2-oxoethyl)azetidin-3-yl)ethoxy)-3-(trifluoromethyl)phenyl)-1-methyl-1H-[1,2,3]triazolo[4,5-c]pyridine-4-carbonitrile Hydrochloride] | < 10 nM |  |
| Cn1nnc2c(C#N)nc(-c3ccc(OCCCO)c(C(F)(F)F)c3)cc21 [Example 32, 6-(4-(3-hydroxypropoxy)-3-(trifluoromethyl)phenyl)-1-methyl-1H-[1,2,3]triazolo[4,5-c]pyridine-4-carbonitrile] | < 10 nM |  |
| CN(C)CCCOc1ccc(-c2cc3c(nnn3C)c(C#N)n2)cc1C(F)(F)F [Example 35, 6-(4-(3-(dimethylamino)propoxy)-3-(trifluoromethyl)phenyl)-1-methyl-1H-[1,2,3]triazolo[4,5-c]pyridine-4-carbonitrile] | < 10 nM | 3.3 nM |
| COC(=O)[C@@H](O)CN1CCC(CCOc2ccc(-c3cc4c(nnn4C)c(C#N)n3)cc2C(F)(F)F)CC1 [Example 39, (S)-methyl 3-(4-(2-(4-(4-cyano-1-methyl-1H-[1,2,3]triazolo[4,5-c]pyridin-6-yl)-2-(trifluoromethyl)phenoxy)ethyl)piperidin-1-yl)-2-hydroxypropanoate] | < 10 nM |  |
| CC(C)c1noc(COc2ccc(-c3cc4c(nnn4C)c(C#N)n3)cc2C(F)(F)F)n1 [Example 43, 6-(4-((3-isopropyl-1,2,4-oxadiazol-5-yl)methoxy)-3-(trifluoromethyl)phenyl)-1-methyl-1H-[1,2,3]triazolo[4,5-c]pyridine-4-carbonitrile] | < 10 nM |  |
| Cn1nnc2c(C#N)nc(-c3ccc(CCCO)c(C(F)(F)F)c3)cc21 [Example 44, 6-(4-(3-hydroxypropyl)-3-(trifluoromethyl)phenyl)-1-methyl-1H-[1,2,3]triazolo[4,5-c]pyridine-4-carbonitrile] |  | 13 nM |
| CN(C)CCCOc1ccc(-c2cc3c(ncn3C)c(C#N)n2)cc1C(F)(F)F [WO 2009/010491 - Example 2a, reference compound] |  | 32 nM |
| Cn1cnc2c(C#N)nc(-c3ccc(OCCC4CCNCC4)c(C(F)(F)F)c3)cc21 [WO 2009/010491, Example 14a, reference compound] |  | 8 nM |

The next lines start with results.

| IC50 [1] | SMILES | IC50 [2] |
| --- | --- | --- |
| < 10 nM | CCN(CC)CCCOc1ccc(-c2cc3c(nnn3C)c(C#N)n2)cc1C(F)(F)F [Example 36q, 6-(4-(3-(diethylamino)propoxy)-3-(trifluoromethyl)phenyl)-1-methyl-1H-[1,2,3]triazolo[4,5-c]pyridine-4-carbonitrile] |  |
| < 10 nM | Cn1nnc2c(C#N)nc(-c3ccc(OCCCN4CCN(CCO)CC4)c(C(F)(F)F)c3)cc21 [Example 36t, 6-(4-(3-(4-(2-hydroxyethyl)piperazin-1-yl)propoxy)-3-(trifluoromethyl)phenyl)-1-methyl-1H-[1,2,3]triazolo[4,5-c]pyridine-4-carbonitrile dihydrochloride] |  |
| < 10 nM | Cn1nnc2c(C#N)nc(-c3ccc(OCCCN4CCN(CC(C)(C)O)CC4)c(C(F)(F)F)c3)cc21 [Example 36u, 6-(4-(3-(4-(2-hydroxy-2-methylpropyl)piperazin-1-yl)propoxy)-3-(trifluoromethyl)phenyl)-1-methyl-1H-[1,2,3]triazolo[4,5-c]pyridine-4-carbonitrile dihydrochloride] |  |
| < 10 nM | CNC(=O)CN1CCN(CCCOc2ccc(-c3cc4c(nnn4C)c(C#N)n3)cc2C(F)(F)F)CC1 [Example 36v, 2-(4-(3-(4-(4-cyano-1-methyl-1H-[1,2,3]triazolo[4,5-c]pyridin-6-yl)-2-(trifluoromethyl)phenoxy)propyl)piperazin-1-yl)-N-methylacetamide dihydrochloride] |  |
| < 10 nM | Cn1nnc2c(C#N)nc(-c3ccc(OCCCN4CCN(c5ccccn5)CC4)c(C(F)(F)F)c3)cc21 [Example 36w, 1-methyl-6-(4-(3-(4-(pyridin-2-yl)piperazin-1-yl)propoxy)-3-(trifluoromethyl)phenyl)-1H-[1,2,3]triazolo[4,5-c]pyridine-4-carbonitrile hydrochloride] |  |
| < 10 nM | CN(CCCOc1ccc(-c2cc3c(nnn3C)c(C#N)n2)cc1C(F)(F)F)CC(=O)N(C)C [Example 36x, 2-((3-(4-(4-cyano-1-methyl-1H-[1,2,3]triazolo[4,5-c]pyridin-6-yl)-2-(trifluoro-methyl)phenoxy)propyl)(methyl)amino)-N,N-dimethylacetamide hydrochloride] |  |
| < 10 nM | Cn1nnc2c(C#N)nc(-c3ccc(OCCN4CCN(CCO)CC4)c(C(F)(F)F)c3)cc21 [Example 37e, 6-(4-(2-(4-(2-hydroxyethyl)piperazin-1-yl)ethoxy)-3-(trifluoromethyl)phenyl)-1-methyl-1H-[1,2,3]triazolo[4,5-c]pyridine-4-carbonitrile] |  |
| < 10 nM | CN(CCOc1ccc(-c2cc3c(nnn3C)c(C#N)n2)cc1C(F)(F)F)CC(=O)N(C)C [Example 37m, 2-((2-(4-(4-cyano-1-methyl-1H-[1,2,3]triazolo[4,5-c]pyridin-6-yl)-2-(trifluoromethyl)phenoxy)ethyl)(methyl)amino)-N,N-dimethylacetamide] |  |
| < 10 nM | Cn1nnc2c(C#N)nc(-c3ccc(OCCN4CCS(=O)(=O)CC4)c(C(F)(F)F)c3)cc21 [Example 37p, 1-methyl-6-(4-(2-(4-S,S-dioxothiomorpholin-1-yl)ethoxy)-3-(trifluoromethyl)phenyl)-1H-[1,2,3]triazolo[4,5-c]pyridine-4-carbonitrile] |  |
| < 10 nM | Cn1nnc2c(C#N)nc(-c3ccc(OCCN4CCNC(C(F)(F)F)C4)c(C(F)(F)F)c3)cc21 (stereo not shown) [Example 37q, 1-methyl-6-(3-(trifluoromethyl)-4-(2-(3-(trifluoromethyl)piperazin-1-yl)ethoxy)phenyl)-1H-[1,2,3]triazolo[4,5-c]pyridine-4-carbonitrile] |  |
| < 10 nM | Cn1nnc2c(C#N)nc(-c3ccc(OCCN4CCNC(=O)C4)c(C(F)(F)F)c3)cc21 [Example 37r, 1-methyl-6-(4-(2-(3-oxopiperazin-1-yl)ethoxy)-3-(trifluoromethyl)phenyl)-1H-[1,2,3]triazolo[4,5-c]pyridine-4-carbonitrile] |  |
